Measured values published in US11530229B2, “Cyano cyclobutyl compounds for CBL-B inhibition and uses thereof” (Nurix Therapeutics, Inc., priority 2019, dated 2022).
Like-named read-outs stand apart in the source and are kept apart here.

Assays:
[1] = system: primary human total T-cells; test: T-cell activation, CD25 surface staining, Biological Example 2; type: cell-based; settings: 48 hours, fold change over baseline; for fold induction at 0.3 µM: 0.3 μM inhibitor; for fold induction at 1 µM: 1 μM inhibitor; for fold induction at 3 µM: 3 μM inhibitor
[2] = system: primary human total T-cells; test: T-cell activation, IL-2 secretion, Biological Example 2; type: cell-based; settings: 48 hours, fold change over baseline; for fold induction at 0.3 µM: 0.3 μM inhibitor; for fold induction at 1 µM: 1 μM inhibitor; for fold induction at 3 µM: 3 μM inhibitor
Cbl-b = Cbl-b (Homo sapiens (Human), UniProt Q13191); test: Cbl-b displacement assay (Cbl-b inhibition assay), Biological Example 1; type: binding
Procedure: Candidate compounds were evaluated for their ability to bind and inhibit Cbl-b, an E3 ubiquitin-protein ligase, as evidenced by their ability to displace a fluorophore-labeled probe (Example 59) bound to Cbl-b.
The ability of candidate compounds to displace a known inhibitor and thereby inhibit Cbl-b activity was measured by monitoring the interaction of Cbl-b with a fluorophore-labeled probe in the presence of the candidate compound. A truncated variant of Cbl-b (UniProt number Q13191; SEQ ID NO:1) containing an Avitag at its N-terminus was co-expressed with BirA biotin ligase and purified using a standard protocol (see Dou et al., Nature Structural and Molecular Biology, 8: 982-987, 2013; Avidity LLC).
Cbl-b Amino Acid Residues 36-427:
Fluorescently-labeled inhibitor probe was synthesized and tagged with BODIPY FL (Example 59). Cbl-b displacement assays were performed in a 384-well plate at room temperature in a 10 μL reaction volume by pre-incubating 0.5 nM Cbl-b or 0.125 nM Cbl-b (final concentration, indicated as “High” and “Low”, respectively) in an assay buffer containing 20 mM HEPES pH 7.5, 150 mM NaCl, 0.01% Triton X-100, 0.01% BSA and 0.5 mM TCEP in the presence of a candidate compound in 1% DMSO (final concentration) for 1 hour. After incubation in the presence of the candidate compound, the plate was incubated for an additional 1 hour in the presence of an approximate EC40 binding saturation consisting of 150 nM fluorescently-labeled inhibitor probe and 2 nM Streptavidin-Terbium (Cisbio) (final concentrations). Following the 1 hour incubation, the plates were read for TR-FRET signal at […] using an Envision plate reader (Perkin Elmer).

[3] = anti-CD3 and anti-CD28 co-stimulation
[4] = anti-CD3 and anti-CD28 co-stimulation, read-out: CD25 staining CD3/CD28 1 μM
[5] = anti-CD3 stimulation alone, read-out: CD25 staining CD3 1 μM
[6] = anti-CD3 and anti-CD28 co-stimulation, read-out: IL-2 secretion CD3/CD28 1 μM
[7] = anti-CD3 stimulation alone, read-out: IL-2 secretion CD3 1 μM
[8] = 0.125 nM Cbl-b final concentration (Low), read-out: Cbl-b activity IC50 (Low)
[9] = read-out: IC50 values in the Cbl-b inhibition assay of Biological Example 1

Cbl-b, sequence (Q13191 36-427): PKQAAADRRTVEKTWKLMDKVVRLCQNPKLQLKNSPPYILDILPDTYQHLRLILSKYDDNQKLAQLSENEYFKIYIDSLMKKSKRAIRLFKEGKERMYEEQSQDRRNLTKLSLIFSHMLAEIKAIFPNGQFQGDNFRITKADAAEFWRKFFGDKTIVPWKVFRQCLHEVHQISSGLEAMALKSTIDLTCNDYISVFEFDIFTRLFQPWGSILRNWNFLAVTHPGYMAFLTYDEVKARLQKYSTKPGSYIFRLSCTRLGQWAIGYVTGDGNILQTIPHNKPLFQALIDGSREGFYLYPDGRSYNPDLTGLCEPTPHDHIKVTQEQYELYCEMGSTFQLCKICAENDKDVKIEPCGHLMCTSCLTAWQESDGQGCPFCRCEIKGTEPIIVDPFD

Compound | fold induction at 0.3 µM [1, 3] | fold induction at 1 µM [1, 4] | fold induction at 1 µM [1, 5] | fold induction at 3 µM ([1]; anti-CD3 stimulation alone) | fold induction at 0.3 µM [2, 3] | fold induction at 1 µM [2, 6] | fold induction at 1 µM [2, 7] | fold induction at 3 µM ([2]; anti-CD3 stimulation alone) | IC50 (Cbl-b; [8]) [nM] | IC50 (Cbl-b; [9]) [nM]
CC1COCCN(Cc2cc3c(c(C(F)(F)F)c2)CN(c2cccc([C@]4(Cc5nncn5C)C[C@@H](C#N)C4)c2)C3=O)C1 (stereo partly drawn) [Compound 35, (1r,3r)-3-(3-(6-((6-methyl-1,4-oxazepan-4-yl)methyl)-1-oxo-4-(trifluoromethyl)isoindolin-2-yl)phenyl)-3-((4-methyl-4H-1,2,4-triazol-3-yl)methyl)cyclobutane-1-carbonitrile] | 1.24 to 1.39 | 1.24 to 1.39 | 1 to 1.15 | 1 to 1.15 | 15 to 20 | 15 to 20 | 0.4 to 0.85 | 0.4 to 0.85 | 2 to 5 | 
Cn1cnnc1C[C@]1(c2cccc(N3Cc4c(cc(CN5CCCOC(CO)C5)cc4C(F)(F)F)C3=O)c2)C[C@H](C#N)C1 (stereo partly drawn) [Compound 41, (1r,3r)-3-(3-(6-((2-(hydroxymethyl)-1,4-oxazepan-4-yl)methyl)-1-oxo-4-(trifluoromethyl)isoindolin-2-yl)phenyl)-3-((4-methyl-4H-1,2,4-triazol-3-yl)methyl)cyclobutane-1-carbonitrile] | 1.24 to 1.39 | > 1.39 | ≤ 1 | 1 to 1.15 | ≤ 15 | ≤ 15 | < 0.4 | < 0.4 | 2 to 5 | 
Cn1cnnc1C[C@]1(c2cccc(N3Cc4c(cc(CNC5CC6C(C5)C6(F)F)cc4C(F)(F)F)C3=O)c2)C[C@H](C#N)C1 (stereo partly drawn) [Compound 12, (1r,3r)-3-(3-(6-(((6,6-difluorobicyclo[3.1.0]hexan-3-yl)amino)methyl)-1-oxo-4-(trifluoromethyl)isoindolin-2-yl)phenyl)-3-((4-methyl-4H-1,2,4-triazol-3-yl)methyl)cyclobutane-1-carbonitrile] | 1.24 to 1.39 | 1.24 to 1.39 | 1 to 1.15 | 1 to 1.15 | 15 to 20 | 15 to 20 | > 0.85 | 0.4 to 0.85 | < 1 | < 1
Cn1cnnc1C[C@]1(c2cccc(N3Cc4c(cc(CN5CCOCC6(CC6)C5)cc4C(F)(F)F)C3=O)c2)C[C@H](C#N)C1 [Compound 30, (1r,3r)-3-(3-(6-((5-oxa-8-azaspiro[2.6]nonan-8-yl)methyl)-1-oxo-4-(trifluoromethyl)isoindolin-2-yl)phenyl)-3-((4-methyl-4H-1,2,4-triazol-3-yl)methyl)cyclobutane-1-carbonitrile] | ≤ 1.24 | ≤ 1.24 | ≤ 1 | 1 to 1.15 | ≤ 15 | ≤ 15 | < 0.4 | < 0.4 | 2 to 5 | 
Cn1cnnc1C[C@]1(c2cccc(N3Cc4c(cc(CN5CCOCC(CO)C5)cc4C(F)(F)F)C3=O)c2)C[C@H](C#N)C1 (stereo partly drawn) [Compound 44, (1r,3r)-3-(3-(6-((6-(hydroxymethyl)-1,4-oxazepan-4-yl)methyl)-1-oxo-4-(trifluoromethyl)isoindolin-2-yl)phenyl)-3-((4-methyl-4H-1,2,4-triazol-3-yl)methyl)cyclobutane-1-carbonitrile] | ≤ 1.24 | ≤ 1.24 | ≤ 1 | 1 to 1.15 | ≤ 15 | ≤ 15 | < 0.4 | < 0.4 | 1 to 2 | 1 to 2
CCC1CN(Cc2cc3c(c(C(F)(F)F)c2)CN(c2cccc([C@]4(Cc5nncn5C)C[C@@H](C#N)C4)c2)C3=O)CCCO1 (stereo partly drawn) [Compound 5, (1r,3r)-3-(3-(6-((2-ethyl-1,4-oxazepan-4-yl)methyl)-1-oxo-4-(trifluoromethyl)isoindolin-2-yl)phenyl)-3-((4-methyl-4H-1,2,4-triazol-3-yl)methyl)cyclobutane-1-carbonitrile] | > 1.39 | > 1.39 | > 1.15 | > 1.15 | > 20 | > 20 | > 0.85 | > 0.85 | 2 to 5 | 2 to 5
Cn1cnnc1C[C@]1(c2cccc(N3Cc4c(cc(CN5CCc6ncccc6C5)cc4C(F)(F)F)C3=O)c2)C[C@H](C#N)C1 [Compound 28, (1r,3r)-3-(3-(6-((7,8-dihydro-1,6-naphthyridin-6(5H)-yl)methyl)-1-oxo-4-(trifluoromethyl)isoindolin-2-yl)phenyl)-3-((4-methyl-4H-1,2,4-triazol-3-yl)methyl)cyclobutane-1-carbonitrile] | ≤ 1.24 | ≤ 1.24 | ≤ 1 | ≤ 1 | ≤ 15 | ≤ 15 | < 0.4 | < 0.4 | 2 to 5 | 
Cn1cnnc1C[C@]1(c2cccc(N3Cc4c(cc(CN5CCO[C@H](C(F)(F)F)C5)cc4C(F)(F)F)C3=O)c2)C[C@H](C#N)C1 [Compound 16, (1S,3r)-3-((4-methyl-4H-1,2,4-triazol-3-yl)methyl)-3-(3-(1-oxo-4-(trifluoromethyl)-6-(((S)-2-(trifluoromethyl)morpholino)methyl)isoindolin-2-yl)phenyl)cyclobutane-1-carbonitrile] | 1.24 to 1.39 | 1.24 to 1.39 | 1 to 1.15 | ≤ 1 | ≤ 15 | 15 to 20 | 0.4 to 0.85 | > 0.85 | 1 to 2 | 1 to 2
Cn1cnnc1C[C@]1(c2cccc(N3Cc4c(cc(CN5CCC6CCC(C5)O6)cc4C(F)(F)F)C3=O)c2)C[C@H](C#N)C1 (stereo partly drawn) [Compound 37, (1r,3r)-3-(3-(6-((9-oxa-3-azabicyclo[4.2.1]nonan-3-yl)methyl)-1-oxo-4-(trifluoromethyl)isoindolin-2-yl)phenyl)-3-((4-methyl-4H-1,2,4-triazol-3-yl)methyl)cyclobutane-1-carbonitrile] | 1.24 to 1.39 | 1.24 to 1.39 | 1 to 1.15 | ≤ 1 | ≤ 15 | 15 to 20 | < 0.4 | 0.4 to 0.85 | 2 to 5 | 
Cn1cnnc1C[C@]1(c2cccc(N3Cc4c(cc(CN5CCCC(F)(F)CC5)cc4C(F)(F)F)C3=O)c2)C[C@H](C#N)C1 [Compound 17, (1r,3r)-3-(3-(6-((4,4-difluoroazepan-1-yl)methyl)-1-oxo-4-(trifluoromethyl)isoindolin-2-yl)phenyl)-3-((4-methyl-4H-1,2,4-triazol-3-yl)methyl)cyclobutane-1-carbonitrile] | 1.24 to 1.39 | 1.24 to 1.39 | 1 to 1.15 | ≤ 1 | 15 to 20 | > 20 | 0.4 to 0.85 | 0.4 to 0.85 | 1 to 2 | 1 to 2
C[C@@H]1CN(Cc2cc3c(c(C(F)(F)F)c2)CN(c2cccc([C@]4(Cc5nncn5C)C[C@](C)(C#N)C4)c2)C3=O)CCO1 [Compound 10, (1S,3s)-1-methyl-3-((4-methyl-4H-1,2,4-triazol-3-yl)methyl)-3-(3-(6-(((R)-2-methylmorpholino)methyl)-1-oxo-4-(trifluoromethyl)isoindolin-2-yl)phenyl)cyclobutane-1-carbonitrile] | ≤ 1.24 | ≤ 1.24 | ≤ 1 | ≤ 1 | ≤ 15 | ≤ 15 | < 0.4 | < 0.4 | ≥ 20 | ≥ 20
